Test results taken from publication PMC9414676, “Experimental Studies Indicate That ST-2223, the Antagonist of Histamine H3 and Dopamine D2/D3 Receptors, Restores Social Deficits and Neurotransmission Dysregulation in Mouse Model of Autism” (Pharmaceuticals, 2022).

Experiments:
[1] = target: EeAChE (Electrophorus electricus, UniProt O42275); test: Acetylcholine esterase inhibition (preliminary data); format: biochemical, electric eel
[2] = test system: dopamine levels in BTBR mice brain; test: Dopamine levels by LC-MS/MS in brain regions; format: in vivo; set-up: key to Dopamine level: ↔: No significant alterations; ↑: significant increase; ↑↑: additional significant increase vs. ST-2223-treated mice; ↓: significant decrease; conditions: for Dopamine level: ST-2223 5 mg/kg i.p. chronic, vs VEH-treated BTBR mice
Method: (§1) All the mice were randomly divided into nine groups of 5–7 mice each. The mice were injected intraperitonially once daily for 21 days with different doses of ST2223 (2.5, 5, and 10 mg/kg, i.p.), ARP 1 mg/kg or vehicle (1% DMSO in 0.9% normal saline). Group I, B6 mice were injected with vehicle served as control. Group II, BTBR mice were treated with vehicle. Groups III–V, BTBR mice received i.p. injections of different doses of ST2223 (2.5, 5, and 10 mg/kg, i.p.), respectively. Group VI, BTBR mice were injected with ARP (1 mg/kg, i.p.). For abrogation studies, Group VII, BTBR mice were treated with ST2223 (5 mg/kg, i.p.) along with RAM (10 mg/kg, i.p.). Group VIII, B6 mice were co-injected with vehicle and RAM (10 mg/kg, i.p). All treatments and vehicle (VEH) were administered 30–45 min before each behavioral test. The doses of these drugs were selected based on previous reports. Behavioral testing was performed between 9:00 am and 3:00 pm in an order randomized by group and in the following sequence: social approach test (SAT) and open field locomotor test (OFL). The chronic treatment started one week before the behavioral test and was continued for a total of 21 days as described above (Figure 7). Following behavioral tests, i.e., on day 21 of systemic treatment, five of the animals were sacrificed. The animals were deeply anesthetized with pentobarbital (40 mg/kg, i.p., body weight). To wash out the blood, cardiac perfusion was carried out using 0.01 M phosphate-buffered saline (PBS) at pH 7.4. The brains were quickly removed and placed on an ice plate, where the cerebellum, hippocampus, prefrontal cortex, and striatum were excised from the brain and snap-frozen in liquid nitrogen for later LC-MS/MS analysis.
Perfusion was done on anesthetized animals using 1X PBS as described previously. Different regions of the brain were snap frozen. Frozen tissues were then weighed and homogenized in a 10-fold volume of acetonitrile. For 50mg of tissue, 500 µL of acetonitrile and Internal standard mix were added and homogenized. Homogenates were centrifuged at 15,000 rcf for 15 min at 4 °C. Tissue levels of dopamine, acetylcholine, histamine, and their metabolites were assessed using LC-MS/MS. LC-MS/MS analysis was conducted utilizing Waters BEH C18 COLUMN (2.1 × 100 mm, 1.7 µm) using Waters Acquity UPLC Binary Solvent Manager and FTN Sample Manager. The system was run in gradient mode with mobile phase A consisting of LC-MS GRADE WATER + 0.1% FORMIC ACID and mobile phase B consisting of 100% ACETONITRILE. Mobile phase was duly filtered through 0.2 µm filter and degassed ultrasonically for 15 min prior to use. Separations were performed at room temperature with 0.3 mL/min flow rate gradient starting with 90% of A for up to 0.5 min. Then, % of A was decreased gradually until it reached 20% at 2.5 min after which at 3 min %A was brought back to the initial condition and left for equilibration for 2 more minutes before the next injection (total 5 min run time). The injection volume was kept at 1 µL. Mass spectrometric detection was performed in multiple reaction monitoring (MRM) mode with positive electrospray ionization (ESI+) on Xevo TQS mass spectrometer (Waters, Milford, MA) equipped with an electrospray ionization (ESI) source and triple quadrupole mass analyzer. MRM transitions and instrument parameters were set by tuning the instrument by infusing each analyte. MRM transitions taken for quantification were 146.2 > 87.1 for Acetylcholine, 112.2 > 95.2 for Histamine, 154.1 > 137.2 for Dopamine, 150.2 > 91.3 for Acetylcholine D4, and […] > 99.3 for Histamine D4. Capillary Voltage, Source Offset, Source Temperature, De solvation Temperature, Cone Gas Flow, De solvation Gas Flow, Collision Gas Flow, Nebulizer Gas Flow were set as 3.0 (kV), 60.0 (V), 150 (°C), 550 (°C), 150 (L/Hr), 1000 (L/Hr), 0.13 (mL/min), and 7 (Bar), correspondingly. […]

[3] = test system: BTBR mice; test: Social approach test (SAT), sociability (novel mouse vs novel object); format: in vivo
Method: as §1
The social approach test (SAT) was performed using an automated three-chamber device (EthoVision® Software, Noldus, The Netherlands) as previously described. The transparent polycarbonate chamber is rectangular and is composed of three interconnected partitions (homemade), which are separated by two sliding doors. In brief, after 10 min of habituation, the study mouse was placed in the central chamber with the doors opened, and the mouse was given the choice to interact with either an empty plastic cup located in one side chamber, referred to as a novel object (NO), or a similar plastic cup with an unfamiliar mouse inside it located in the opposite chamber, referred to as a novel mouse (NM), which was matched in age, sex, and strain with test mouse. To avoid innate side preferences, the plastic cup for NO and NM were randomly placed in either chamber and the placement was changed between studies and between mice. For 10 min, the test mouse was allowed to explore all three chambers and cups, and the time spent interacting with NO and NM (sniffing) was automatically recorded by EthoVision® Software. Immediately after this session, a novel mouse is kept in the empty cup and is referred to as novel mouse (NM), and the mouse in the other cup from the earlier session is referred to as familiar mouse (FM). The study mouse is allowed to explore the three chambers for 10 min, and the time spent for interacting with both mice was automatically recorded, to assess social novelty preference. Eight groups of 7 mice/group were used for the SAT. To allow the direct comparison of social behavior between the treated groups, the sociability index (SI) and social novelty index (SNI) were calculated with the following formula, as previously described: SI=(Time exploring NM−Time exploring NO)/(Time exploring NM+Time exploring NO) SNI=(Time exploring NM−Time exploring FM)/(Time exploring NM+Time exploring FM)

[4] = target: T1, hD3R (Homo sapiens, UniProt P35462); test: [3H]spiperone displacement assay, CHO cells expressing hD3Rs; format: binding; conditions: ratio of Ki values
T1 construct: expressed in transfected cells; host or cells: CHO cells (from the earlier reading's assay name)
T1 sequence (P35462 whole entry): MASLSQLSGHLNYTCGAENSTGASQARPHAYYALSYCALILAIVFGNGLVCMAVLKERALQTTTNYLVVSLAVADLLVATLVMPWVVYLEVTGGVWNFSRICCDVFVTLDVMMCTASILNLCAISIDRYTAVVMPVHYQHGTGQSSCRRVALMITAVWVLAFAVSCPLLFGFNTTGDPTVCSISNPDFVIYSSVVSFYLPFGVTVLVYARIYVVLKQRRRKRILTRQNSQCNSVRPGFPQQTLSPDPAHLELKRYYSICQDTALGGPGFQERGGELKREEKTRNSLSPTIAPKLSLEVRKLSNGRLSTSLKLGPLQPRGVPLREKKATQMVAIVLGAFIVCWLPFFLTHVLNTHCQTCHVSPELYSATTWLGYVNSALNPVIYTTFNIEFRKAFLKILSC

[5] = test system: BTBR mice; test: Social approach test (SAT), social novelty preference (novel mouse vs familiar mouse); format: in vivo; conditions: for preference to novel mouse (NM) over familiar mouse (FM) vs VEH-treated BTBR mice: p < 0.001
Method: as §1
The social approach test (SAT) was performed using an automated three-chamber device (EthoVision® Software, Noldus, The Netherlands) as previously described. The transparent polycarbonate chamber is rectangular and is composed of three interconnected partitions (homemade), which are separated by two sliding doors. […] For 10 min, the test mouse was allowed to explore all three chambers and cups, and the time spent interacting with NO and NM (sniffing) was automatically recorded by EthoVision® Software. […] The study mouse is allowed to explore the three chambers for 10 min, and the time spent for interacting with both mice was automatically recorded, to assess social novelty preference. […] To allow the direct comparison of social behavior between the treated groups, the sociability index (SI) and social novelty index (SNI) were calculated with the following formula, as previously described: SI=(Time exploring NM−Time exploring NO)/(Time exploring NM+Time exploring NO) SNI=(Time exploring NM−Time exploring FM)/(Time exploring NM+Time exploring FM)

EeAChE, sequence (O42275 24-633): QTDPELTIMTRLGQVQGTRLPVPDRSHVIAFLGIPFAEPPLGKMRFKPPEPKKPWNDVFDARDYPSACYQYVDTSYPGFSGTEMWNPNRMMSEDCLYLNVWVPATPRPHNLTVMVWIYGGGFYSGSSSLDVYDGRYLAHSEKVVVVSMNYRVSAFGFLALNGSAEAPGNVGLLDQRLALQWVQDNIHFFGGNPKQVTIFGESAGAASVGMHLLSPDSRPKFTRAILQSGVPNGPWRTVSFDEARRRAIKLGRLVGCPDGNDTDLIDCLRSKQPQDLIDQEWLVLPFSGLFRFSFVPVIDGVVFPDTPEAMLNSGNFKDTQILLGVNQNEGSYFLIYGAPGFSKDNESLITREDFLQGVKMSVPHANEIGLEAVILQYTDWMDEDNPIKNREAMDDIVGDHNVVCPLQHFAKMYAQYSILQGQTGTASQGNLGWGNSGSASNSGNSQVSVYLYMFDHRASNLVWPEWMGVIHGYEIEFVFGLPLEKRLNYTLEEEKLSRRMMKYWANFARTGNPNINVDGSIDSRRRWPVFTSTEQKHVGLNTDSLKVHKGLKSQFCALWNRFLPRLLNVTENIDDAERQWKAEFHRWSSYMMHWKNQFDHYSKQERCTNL

Q: How did the “inhibition of acetylcholine esterase enzyme (eeAChE), in words” value [1] turn out when `COc1ccccc1N1CCN(CCCCNC(=O)c2ccc3cc(OCCCN4CCCCC4)ccc3c2)CC1` [ST-2223, N-(4-(4-(2-methoxyphenyl)piperazin-1-yl)butyl)-6-(3-(piperidin-1-yl)propoxy)-2-naphthamide] was run?
A: Its value is “neglectful inhibition”.

Q: And the Dopamine level ([2]; Cerebellum)?
A: Its Dopamine level is “↓ ^b”.

Q: What about the Dopamine level ([2]; Hippocampus) of the same compound?
A: The Dopamine level was “↔”.

Q: What about the Dopamine level ([2]; Prefrontal cortex) of the same compound?
A: The Dopamine level was “↑ ^b”.

Q: And the Dopamine level ([2]; Striatum)?
A: The Dopamine level was “↑ ^b”.

Q: And the “dopamine levels” value ([2]; prefrontal cortex and striatum, ST-2223 5 mg/kg chronic, p < 0.05)?
A: Its value is “significantly increased the dopamine levels in both regions”.

Q: What about the “time spent with novel mouse (NM) vs novel object (NO)” value (shortened to “time spent … vs novel object (NO)”) ([3]; ST-2223 2.5 mg/kg i.p. chronic, p = 0.48) of the same compound?
A: Its value is “unsuccessful to exert remarked improvement”.

Q: And the “exploring time spent with NM vs VEH-treated BTBR mice” value ([3]; ST-2223 2.5 mg/kg i.p. chronic, p > 0.05)?
A: The value was “not a significant level”.

Q: What about the “exploring time spent with NM vs VEH-treated BTBR mice” value ([3]; ST-2223 5 mg/kg i.p. chronic, p < 0.001) of the same compound?
A: The value was “significantly improved exploring time spent with NM”.

Q: And the “time spent … vs novel object (NO)” value ([3]; ST-2223 5 mg/kg i.p. chronic, p < 0.01)?
A: The value was “significantly enhanced time spent with the NM”.

Q: What about the “sociability index (SI) vs VEH-treated BTBR mice” value ([3]; ST-2223 5 mg/kg i.p. chronic, p < 0.05) of the same compound?
A: The value was “significant improvement in sociability”.

Q: What about the “time spent … vs novel object (NO)” value ([3]; ST-2223 10 mg/kg i.p. chronic, p = 0.53) of the same compound?
A: Its value is “unsuccessful to exert remarked improvement”.

Q: What about the “ratio of hD2Rs/hD3Rs” value [4] of the same compound?
A: Its value is 10.

Q: What about the “social novelty index (SNI)” value ([5]; ST-2223 5 mg/kg i.p. chronic, no significant difference to control B6) of the same compound?
A: The value was “significantly improved social novelty performance”.

Q: What about the “preference to novel mouse (NM) over familiar mouse (FM) vs VEH-treated BTBR mice” value ([5]; ST-2223 5 mg/kg i.p. chronic) of the same compound?
A: Its value is “enhanced preference to stranger NM over FM”.

Q: And the “preference to novel mouse (NM) over familiar mouse (FM) vs VEH-treated BTBR mice” value ([5]; ST-2223 10 mg/kg i.p. chronic)?
A: The value was “enhanced preference to stranger NM over FM”.
